{"source": "ChEMBL document CHEMBL1142400", "about": "“An updated steroid benchmark set and its application in the discovery of novel nanomolar ligands of sex hormone-binding globulin” (J Med Chem, 2008)"}
{"molecular_target": "T1, Sex hormone-binding globulin (Homo sapiens, UniProt P04278)", "T1 sequence (P04278 whole entry)": "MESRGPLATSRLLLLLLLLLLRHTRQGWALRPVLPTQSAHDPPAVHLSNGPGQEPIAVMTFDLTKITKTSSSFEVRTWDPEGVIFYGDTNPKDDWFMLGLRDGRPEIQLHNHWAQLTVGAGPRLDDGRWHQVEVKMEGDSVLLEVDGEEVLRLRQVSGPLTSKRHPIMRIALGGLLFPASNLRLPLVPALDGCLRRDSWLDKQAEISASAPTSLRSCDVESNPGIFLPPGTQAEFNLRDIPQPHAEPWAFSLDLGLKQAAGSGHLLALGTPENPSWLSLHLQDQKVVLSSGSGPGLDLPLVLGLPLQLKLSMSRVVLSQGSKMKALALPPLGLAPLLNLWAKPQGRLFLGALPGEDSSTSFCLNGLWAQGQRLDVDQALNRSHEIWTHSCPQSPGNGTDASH", "assay": "Displacement of [3H]5alpha dihydrotestosterone from human sex hormone binding globulin", "units": {"Kd": "nM"}}
{"smiles": "C[C@]12CC[C@H]3C(=CCc4cc(O)ccc43)[C@@H]1CC[C@@H]2O", "Kd": 2.4}
{"smiles": "C[C@]12CC[C@@H]3c4ccc(O)cc4C=C[C@H]3[C@@H]1CC[C@@H]2O", "Kd": 1.74}
{"smiles": "C[C@]12CC[C@H]3[C@@H](CC=C4C[C@@H](O)CC[C@@H]43)[C@@H]1CC[C@@H]2O", "Kd": 0.288}
{"smiles": "CC1(C)CC2=C3C=C[C@@]4(C)[C@@H](CC[C@]4(C)O)[C@@H]3CCC2=CC1=O", "Kd": 138}
{"smiles": "CC(C)(C)CC(C)(C)c1ccc(O)cc1", "Kd": 2140}
{"smiles": "COc1cc(/C=N/CCc2ccccc2)ccc1O", "Kd": 589}
{"smiles": "CCc1cc(C(=O)Cc2ccccc2C)c(O)cc1O", "Kd": 107}
{"smiles": "C[C@@H]1CC2=CC(=O)CC[C@]2(C)[C@@]2(F)CC[C@]3(C)[C@@H](O)CC[C@H]3[C@H]12", "Kd": 3.09}
{"smiles": "C#C[C@]1(O)CC[C@H]2[C@@H]3CCC4=C[C@H](O)CC[C@]4(C)C3C(=C)C[C@@]21CC", "note": "(some centres undefined)", "Kd": 21.4}
{"smiles": "Cc1c(Cc2ccccc2)c(=O)oc2c(C)c(O)ccc12", "Kd": 2190}
{"smiles": "C#C[C@]1(O)CC[C@H]2[C@@H]3CC[C@H]4CC(=O)CC[C@]4(C)[C@H]3CC[C@@]21C", "Kd": 0.182}
{"smiles": "C[C@]12CC[C@H]3[C@@H](CC[C@H]4CC(=O)C[C@H](CCCCCCN)[C@@]43C)[C@@H]1CC[C@@H]2O", "Kd": 29.5}
{"smiles": "C[C@@H]1CC2=CC(=O)C=C[C@]2(C)[C@H]2CC[C@]3(C)[C@@H](O)CC[C@H]3[C@H]12", "Kd": 4.37}
{"smiles": "C[C@H]1C[C@H]2[C@@H]3CC[C@H](O)[C@@]3(C)CC[C@@H]2[C@@]2(C)CCC(=O)C=C12", "Kd": 4.37}
{"smiles": "C[C@]12CC[C@H]3[C@@H](CCC4CC(=O)CC[C@@H]43)[C@@H]1CC[C@@H]2O", "note": "(some centres undefined)", "Kd": 4.37}
{"smiles": "C[C@@H]1C=C2CC(O)CC[C@]2(C)[C@H]2CC[C@@]3(C)[C@@H](CC[C@]3(C)O)[C@H]12", "note": "(some centres undefined)", "Kd": 363}
{"smiles": "C[C@@H]1CC2=CC(=O)CC[C@@H]2[C@H]2CC[C@@]3(C)C(=CC[C@@H]3O)[C@@H]21", "Kd": 0.851}
{"smiles": "C[C@@]12CCC[C@H]1[C@@H]1CCc3cc(O)ccc3[C@H]1CC2", "Kd": 5.01}
{"smiles": "C#C[C@]1(O)CC[C@H]2[C@H]3[C@H](C(=C)C[C@@]21CC)[C@H]1CC[C@@H](O)C[C@@H]1C[C@H]3C", "Kd": 5.37}
{"smiles": "C[C@@H]1C[C@H]2C[C@@H](O)CC[C@]2(C)[C@H]2CC[C@]3(C)[C@@H](O)CC[C@H]3[C@H]12", "Kd": 1}
{"smiles": "C[C@@H]1C[C@H]2CC(=O)CC[C@]2(C)[C@H]2CC[C@@]3(C)[C@@H](CC[C@]3(C)O)[C@H]12", "Kd": 0.891}
{"smiles": "C[C@]12CCC(=O)C[C@@H]1CC[C@@H]1[C@@H]2[C@@H](O)C[C@@]2(C)[C@H]1CC[C@@]2(O)CCCN", "Kd": 11000}
{"smiles": "CC1=C2CC[C@H]3[C@@H]4CC[C@H](O)[C@@]4(C)CC[C@@H]3[C@@]2(C)CCC1=O", "Kd": 0.49}
{"smiles": "C[C@]12CC[C@@H]3c4cc(I)c(O)cc4CC[C@H]3[C@@H]1CC[C@@H]2O", "Kd": 0.479}
{"smiles": "Cc1c(O)ccc(C(=O)Cc2ccccc2Cl)c1O", "Kd": 2190}
{"smiles": "Oc1ccc(-c2cc3ccc(O)cc3o2)cc1", "Kd": 832}
{"smiles": "C[C@@H]1CC2=CC(=O)C=C[C@]2(C)[C@H]2CC[C@@]3(C)[C@@H](CC[C@]3(C)O)[C@H]12", "Kd": 2.69}
{"smiles": "C[C@@H]1CC2=CC(=O)CC[C@]2(C)[C@H]2CC[C@]3(C)[C@@H](O)CC[C@H]3[C@H]12", "Kd": 1.95}
{"smiles": "C[C@]1(O)CC[C@H]2[C@@H]3CCC4=CC(=O)CC[C@]4(C)[C@@]3(F)C(=O)C[C@@]21C", "Kd": 5.89}
{"smiles": "COc1cc(C(=O)OC2CC3CCC2(C)C3(C)I)ccc1O", "note": "(centres undefined)", "Kd": 407}
{"smiles": "CC[C@H](C1CCC(O)CC1)[C@@H](CC)C1CCC(O)CC1", "note": "(some centres undefined)", "Kd": 28800}
{"smiles": "CC(=O)[C@@]1(O)CC[C@H]2[C@@H]3CC=C4C[C@@H](O)CC[C@]4(C)[C@H]3CC[C@@]21C", "Kd": 437}
{"smiles": "C[C@]12CCC(=O)C[C@@H]1[C@@H](F)C[C@@H]1[C@@H]2CC[C@]2(C)[C@@H](O)CC[C@@H]12", "Kd": 0.891}
{"smiles": "CC[C@H](C1CCCCC1)[C@@H](CC)C1CCCCC1", "Kd": 2450}
{"smiles": "C#C[C@]1(O)CC[C@H]2[C@@H]3CC[C@H]4CC(=O)CC[C@@H]4[C@H]3C(=C)C[C@@]21CC", "Kd": 1.58}
{"smiles": "C[C@]12CCC3=C4CCC(=O)C=C4C=C[C@H]3[C@@H]1CC[C@@H]2O", "Kd": 1150}
{"smiles": "C#C[C@]1(O)CC[C@H]2[C@@H]3CCC4=C[C@@H](O)CC[C@]4(C)C3C(=C)C[C@@]21CC", "note": "(some centres undefined)", "Kd": 13.2}
{"smiles": "CC1(O)CC[C@H]2[C@@H]3CC=C4CC(O)CC[C@]4(C)[C@H]3CC[C@@]21C", "note": "(some centres undefined)", "Kd": 4.37}
{"smiles": "C#C[C@]1(O)CC[C@H]2[C@@H]3[C@H](C)C=C4CC(O)CC[C@]4(C)[C@H]3CC[C@@]21C", "note": "(some centres undefined)", "Kd": 363}
{"smiles": "C#C[C@]1(O)CC[C@H]2[C@@H]3CC=C4C[C@@H](O)CC[C@]4(C)[C@H]3CC[C@@]21C", "Kd": 1.23}
{"smiles": "C[C@@H]1C[C@H]2CC(=O)CC[C@]2(C)[C@H]2CC[C@]3(C)[C@@H](O)CC[C@H]3[C@H]12", "Kd": 0.417}
{"smiles": "C[C@]12CC[C@H]3[C@@H](CCC4=CC(=O)CC[C@@]43C)[C@@H]1C[C@@H](O)[C@@H]2O", "Kd": 12}
{"smiles": "C#C[C@]1(O)CC[C@H]2[C@@H]3CC[C@H]4CC(F)(F)CC[C@]4(C)[C@H]3CC[C@@]21C", "Kd": 4.37}
{"smiles": "C[C@@H]1CC2CC(=O)CC[C@@H]2[C@H]2CC[C@]3(C)[C@@H](O)CC[C@H]3[C@@H]21", "note": "(some centres undefined)", "Kd": 3.47}
{"smiles": "C[C@@H]1C[C@H]2C[C@@H](O)CC[C@]2(C)[C@H]2CC[C@@]3(C)[C@@H](CC[C@]3(C)O)[C@H]12", "Kd": 3.47}
{"smiles": "O=C1C[C@@H](c2ccc(O)cc2)Oc2cc(O)cc(O)c21", "note": "(stereo in doubt; 82) [NARINGENIN]", "Kd": 28200}
{"smiles": "O=C1C[C@@H](c2ccc(O)cc2)Oc2cc(O)cc(O)c21", "note": "(stereo in doubt; 90) [NARINGENIN]", "Kd": 955}
{"smiles": "COc1cc2c(cc1O)CC[C@@H]1[C@@H]2CC[C@]2(C)[C@@H](O)CC[C@@H]12", "note": "[2-METHOXYESTRADIOL]", "Kd": 0.832}
{"smiles": "CCCCCCCCCc1ccc(O)cc1", "note": "[4-NONYLPHENOL]", "Kd": 1200}
{"smiles": "C[C@]12CCC(=O)C=C1CC[C@@H]1[C@@H]2[C@@H](O)C[C@]2(C=O)[C@@H](C(=O)CO)CC[C@@H]12", "note": "[ALDOSTERONE]", "Kd": 4790}
{"smiles": "C[C@]12CC[C@@H](O)C[C@@H]1CC[C@@H]1[C@@H]2CC[C@]2(C)[C@@H](O)CC[C@@H]12", "note": "[ANDROSTANDIOL]", "Kd": 0.776}
{"smiles": "C[C@]12CCC(=O)C=C1CC[C@@H]1[C@@H]2CC[C@]2(C)C(=O)CC[C@@H]12", "note": "[ANDROSTENEDIONE]", "Kd": 34.7}
{"smiles": "C[C@]12CC[C@@H](O)C[C@@H]1CC[C@@H]1[C@@H]2CC[C@]2(C)C(=O)CC[C@@H]12", "note": "[ANDROSTERONE]", "Kd": 70.8}
{"smiles": "C[C@@H]1CC2=CC(=O)CC[C@]2(C)[C@H]2CC[C@@]3(C)[C@@H](CC[C@]3(C)O)[C@H]12", "note": "[BOLASTERONE]", "Kd": 1.74}
{"smiles": "C[C@]12C[C@H](O)[C@H]3[C@@H](CCC4=CC(=O)CC[C@@]43C)[C@@H]1CC[C@@H]2C(=O)CO", "note": "[CORTICOSTERONE]", "Kd": 457}
{"smiles": "C[C@]12CCC(=O)C=C1CC[C@@H]1[C@@H]2C(=O)C[C@@]2(C)[C@H]1CC[C@]2(O)C(=O)CO", "note": "[CORTISONE]", "Kd": 372}
{"smiles": "C[C@]12CCC(=O)C=C1CC[C@@H]1[C@@H]2CC[C@@]2(C)[C@H]1CC[C@]2(O)C(=O)CO", "note": "[CORTODOXONE]", "Kd": 36.3}
{"smiles": "C#C[C@]1(O)CC[C@H]2[C@@H]3CCC4=Cc5oncc5C[C@]4(C)[C@H]3CC[C@@]21C", "note": "[DANAZOL]", "Kd": 6.31}
{"smiles": "C#C[C@]1(O)CC[C@H]2[C@@H]3CCC4=CCCC[C@@H]4[C@H]3C(=C)C[C@@]21CC", "note": "[DESOGESTREL]", "Kd": 251}
{"smiles": "C[C@]12CC[C@H]3[C@@H](CCC4=CC(=O)CC[C@@]43C)[C@@H]1CC[C@@H]2C(=O)CO", "note": "[DESOXYCORTICOSTERONE]", "Kd": 41.7}
{"smiles": "C[C@]12CCc3c(ccc4cc(O)ccc34)[C@@H]1CCC2=O", "note": "[EQUILENIN]", "Kd": 2.4}
{"smiles": "C[C@]12CC[C@H]3C(=CCc4cc(O)ccc43)[C@@H]1CCC2=O", "note": "[EQUILIN]", "Kd": 3.09}
{"smiles": "C[C@]12CC[C@@H]3c4ccc(OC(=O)c5ccccc5)cc4CC[C@H]3[C@@H]1CC[C@@H]2O", "note": "[ESTRADIOL BENZOATE]", "Kd": 1150}
{"smiles": "C[C@]12CC[C@@H]3c4ccc(O)cc4CC[C@H]3[C@@H]1C[C@@H](O)[C@@H]2O", "note": "[ESTRIOL]", "Kd": 234}
{"smiles": "C[C@]12CC[C@@H]3c4ccc(O)cc4CC[C@H]3[C@@H]1CCC2=O", "note": "[ESTRONE]", "Kd": 6.61}
{"smiles": "C#C[C@]1(O)CC[C@H]2[C@@H]3CCc4cc(O)ccc4[C@H]3CC[C@@]21C", "note": "[ETHINYL ESTRADIOL]", "Kd": 155}
{"smiles": "C#C[C@]1(O)CC[C@H]2[C@@H]3CCC4=CC(=O)CC[C@]4(C)[C@H]3CC[C@@]21C", "note": "[ETHISTERONE]", "Kd": 1.66}
{"smiles": "C[C@]12CC[C@@H](O)C[C@H]1CC[C@@H]1[C@@H]2CC[C@]2(C)C(=O)CC[C@@H]12", "note": "[ETIOCHOLANOLONE]", "Kd": 708}
{"smiles": "C#C[C@]1(O)CC[C@H]2[C@@H]3CCC4=CC(=O)CC[C@@H]4[C@H]3C(=C)C[C@@]21CC", "note": "[ETONOGESTREL]", "Kd": 5.89}
{"smiles": "O=c1c(-c2ccc(O)cc2)coc2cc(O)cc(O)c12", "note": "[GENISTEIN]", "Kd": 39800}
{"smiles": "C#C[C@]1(O)CC[C@H]2[C@@H]3CCC4=CC(=O)CCC4=C3C=C[C@@]21CC", "note": "[GESTRINONE]", "Kd": 7.76}
{"smiles": "C[C@]12CCC(=O)C=C1CC[C@@H]1[C@@H]2[C@@H](O)C[C@@]2(C)[C@H]1CC[C@]2(O)C(=O)CO", "note": "[HYDROCORTISONE]", "Kd": 631}
{"smiles": "CC(=O)[C@@]1(O)CC[C@H]2[C@@H]3CCC4=CC(=O)CC[C@]4(C)[C@H]3CC[C@@]21C", "note": "[HYDROXYPROGESTERONE]", "Kd": 100}
{"smiles": "COc1cc(C[C@H]2COC(=O)[C@@H]2Cc2ccc(O)c(OC)c2)ccc1O", "note": "[MATAIRESINOL]", "Kd": 309}
